Literature values in paper PMC6168745 (Diabetes, Obesity & Metabolism, 2016).

Assays:
[1] = tested on: participants with type 2 diabetes; details: + insulin glargine + metformin; CGM
[2] = tested on: people with type 2 diabetes

Substance | glucose CV and MAGE compared with prandial insulin [1] | MAGE, large amplitude of glycaemic excursions and within-day s.d. of mean daily glucose ([2]; once daily, comparative trials with insulin) | MAGE from baseline ([2]; small uncontrolled study of Japanese people with type 2 diabetes)
exenatide [Twice‐daily exenatide] | significantly reduced | – | –
liraglutide | – | significantly reduced | significantly reduced
